Measurements reported in patent US20100017900A1, “Prostate Epithelial Androgen Receptor Suppresses Prostate Growth and Tumor Invasion” (University of Rochester, priority 2006, published 2010).
“Also recorded” adds a separate entry of the source.

How the values were obtained:
[1] = system: MMP-9; experiment: MMP-9 enzyme (gelatinase) / zymography assay in PC3-AR9 cells; assay type: cell-based, human; conditions: for gelatinase activity of MMP-9: PC3-AR9 cells
[2] = system: PC3-AR9 cells; experiment: Boyden chamber Matrigel invasion assay of PC3-AR9 cells; assay type: cell-based, human; conditions: Matrigel coated Boyden chambers
Method: The invasion assays used Boyden chambers (Becton Dickinson) with […] inserts and 8 μm pores. Matrigel Matrix ([…] surface area) was placed in medium (1:5 dilution) on the inner layer of the invasion chamber and incubated at 37° C. for 30 min before adding the cells.

CCCCCCCCCCCCCC(=O)O[C@@H]1[C@@H](C)[C@@]2(O)[C@@H](C=C(CO)C[C@]3(O)C(=O)C(C)=C[C@@H]23)[C@@H]2C(C)(C)[C@]12OC(C)=O [TPA]
activity of MMP-9 (zymography) ([1]; 10 nM TPA): increased; also recorded: enhanced

C[C@]12CCC(=O)C[C@@H]1CC[C@@H]1[C@@H]2CC[C@]2(C)[C@@H](O)CC[C@@H]12 [DHT, dihydrotestosterone]
invasion of PC3-AR9 ([2]; in the presence of DHT, compared to PC3-v): decreased
gelatinase activity of MMP-9 ([1]; 1 nM DHT): suppress

CC(C)(O)C(=O)Nc1ccc([N+](=O)[O-])c(C(F)(F)F)c1 [HF]
invasion of PC3-AR9 ([2]; addition of HF to DHT): increased
gelatinase activity of MMP-9 ([1]; 1 μM HF added to 1 nM DHT): restore
